# Data: US8926998B2, “Polycarbonates bearing pendant primary amines for medical applications” (International Business Machines Corporation, priority 2012, dated 2015)
# Test system: S. aureus
# Test: Minimal inhibitory concentration (MIC), broth microdilution
# Type: cell-based, Staphylococcus aureus
# Conditions: free drug
# Procedure: Bacteria (S. aureus, S. epidermis and E. coli) and Yeast (C. albicans) obtained from ATCC were reconstituted from its lyophilized form according to the manufacturer's protocol. Bacterial samples were cultured in tryptic soy broth (T-SB) or Mueller Hinton broth (M-HB) solution at 37° C., and yeast cells were cultured in YMB at room temperature under constant shaking of 100 rpm. The MICs of the polymers were measured using the broth microdilution method. Briefly, 100 microliters of the respect broth medium containing a polymer at various concentrations (15.6, 31.3, 62.5, 125, 250, 500, 1000, 2000 mg/L) was placed into each well of a 96-well tissue culture plate. An equal volume of microbial suspension (3×10^5 CFU/mL) was added into each well. Prior to mixing, the microbial sample was first inoculated overnight to enter its log growth phase. The concentration of microbial solution was adjusted to give an initial optical density (O.D.) reading of approximately 0.07 at 600 nm wavelength on a microplate reader (TECAN, Switzerland), which corresponds to the concentration of Mc Farland 1 solution (3×10^8 CFU/mL), the microbial solution was further diluted by 1000 times to achieve an initial loading of 3×10^5 CFU/mL. The bacterial samples were kept in an incubator at 37° C. for 18 hours, while the Yeast samples were kept at room temperature for 42 hours under constant shaking of 100 rpm. […]
smiles,measurement,value
"CC1(C)S[C@@H]2[C@H](NC(=O)Cc3ccccc3)C(=O)N2[C@H]1C(=O)O [PenG, Penicillin G]",MIC S. aureus,about 0.01 mg/L
